Data: US11820766B2, “Monoacylglycerol lipase modulators” (Janssen Pharmaceutica NV, priority 2018, dated 2023)
Where a name gives a salt, the structure may show the parent alone.

target: T1, human MGL from HeLa cells (Homo sapiens, UniProt Q99685); experiment: In vitro MGL activity assay: [glycerol-1,3-3H]-oleyl glycerol cleavage by MGL from HeLa cells; assay type: biochemical; details: 300 nM [Glycerol-1,3-3H]-oleyl glycerol, one hour
T1 construct: combining endogenously expressed MGL from HeLa cells with test compounds; endogenous in cells; host or cells: HeLa cells / cell homogenates
T1 sequence (Q99685 1-303): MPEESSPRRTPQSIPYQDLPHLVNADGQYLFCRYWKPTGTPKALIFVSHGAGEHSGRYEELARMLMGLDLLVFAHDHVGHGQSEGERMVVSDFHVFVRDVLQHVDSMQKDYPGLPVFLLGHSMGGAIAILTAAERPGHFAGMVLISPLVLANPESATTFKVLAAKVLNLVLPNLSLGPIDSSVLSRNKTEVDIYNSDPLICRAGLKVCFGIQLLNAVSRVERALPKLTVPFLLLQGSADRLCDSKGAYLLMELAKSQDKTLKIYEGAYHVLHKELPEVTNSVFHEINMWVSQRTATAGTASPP
From the text: MGL is the predominant hydrolase in HeLa cells/cell homogenates.

IC50 [nM] | SMILES
267 | C[C@H]1c2nn(C)c(-c3ccc(C(F)(F)F)nc3)c2CCN1C(=O)c1ccc2ncccc2c1 [Example 522, [(7S)-2,7-Dimethyl-3-[6-(trifluoromethyl)-3-pyridyl]-5,7-dihydro-4H-pyrazolo[3,4-c]pyridin-6-yl]-(6-quinolyl)methanone]
29.4 | C[C@H]1c2nn(C)c(-c3cc(F)cc(C(F)F)c3)c2CCN1C(=O)c1ccc2c(c1)OCCC2 [Example 610, Chroman-7-yl-[(7S)-3-[3-(difluoromethyl)-5-fluoro-phenyl]-2,7-dimethyl-5,7-dihydro-4H-pyrazolo[3,4-c]pyridin-6-yl]methanone]
361 | CC(C)Oc1cccc(-c2c3c(nn2C)[C@H](C)N(C(=O)c2ccc4ncccc4c2)CC3)c1 [Example 498, [(7S)-3-(3-Isopropoxyphenyl)-2,7-dimethyl-5,7-dihydro-4H-pyrazolo[3,4-c]pyridin-6-yl]-(6-quinolyl)methanone]
20.4 | Cc1cccc2nc(C(F)(F)F)c(C(=O)N3CCc4c(nn(C)c4-c4cc(F)c(F)c(F)c4)[C@@H]3C)n12 [Example 414, [(7S)-2,7-Dimethyl-3-(3,4,5-trifluorophenyl)-5,7-dihydro-4H-pyrazolo[3,4-c]pyridin-6-yl]-[5-methyl-2-(trifluoromethyl)imidazo[1,2-a]pyridin-3-yl]methanone]
207 | C[C@H]1c2nn(C)c(-c3cc(F)c(F)c(F)c3)c2CCN1C(=O)c1ccc2cncnc2c1 [Example 480, [(7S)-2,7-Dimethyl-3-(3,4,5-trifluorophenyl)-5,7-dihydro-4H-pyrazolo[3,4-c]pyridin-6-yl]-quinazolin-7-yl-methanone]
6.73 | COc1cc(Cl)cc(-c2c3c(nn2C)[C@H](C)N(C(=O)c2c(C)nc4ccccn24)CC3)c1 [Example 395, [(7S)-3-(3-Chloro-5-methoxy-phenyl)-2,7-dimethyl-5,7-dihydro-4H-pyrazolo[3,4-c]pyridin-6-yl]-(2-methylimidazo[1,2-a]pyridin-3-yl) methanone]
43.9 | Cc1nn2ncccc2c1C(=O)N1CCc2c(nn(C)c2-c2cc(F)c(F)c(F)c2)[C@@H]1C [Example 442, [(7S)-2,7-Dimethyl-3-(3,4,5-trifluorophenyl)-5,7-dihydro-4H-pyrazolo[3,4-c]pyridin-6-yl]-(2-methylpyrazolo[1,5-b]pyridazin-3-yl) methanone]
1050 | C[C@H]1c2nn(C)c(-c3cc(F)c(F)c(F)c3)c2CCN1C(=O)c1cnc2c(c1)COCC2 [Example 567, 7,8-Dihydro-5H-pyrano[4,3-b]pyridin-3-yl-[(7S)-2,7-dimethyl-3-(3,4,5-trifluorophenyl)-5,7-dihydro-4H-pyrazolo[3,4-c]pyridin-6-yl]methanone]
5.2 | C[C@H]1c2nn(C)c(-c3cc(F)c(F)c(F)c3)c2CCN1C(=O)c1ncnc2c(F)cccc12 [Example 481, [(7S)-2,7-Dimethyl-3-(3,4,5-trifluorophenyl)-5,7-dihydro-4H-pyrazolo[3,4-c]pyridin-6-yl]-(8-fluoroquinazolin-4-yl)methanone]
52.3 | Cc1ccc2ncc(C(=O)N3CCc4c(nn(C)c4-c4cc(F)c(F)c(F)c4)[C@@H]3C)n2c1 [Example 400, [(7S)-2,7-Dimethyl-3-(3,4,5-trifluorophenyl)-5,7-dihydro-4H-pyrazolo[3,4-c]pyridin-6-yl]-(6-methylimidazo[1,2-a]pyridin-3-yl)methanone]
865 | C[C@H]1c2nn(C)c(-c3cc(F)c(F)c(F)c3)c2CCN1C(=O)c1ccc2nnc(C(F)F)n2c1 [Example 440, [3-(Difluoromethyl)-[1,2,4]triazolo[4,3-a]pyridin-6-yl]-[(7S)-2,7-dimethyl-3-(3,4,5-trifluorophenyl)-5,7-dihydro-4H-pyrazolo[3,4-c]pyridin-6-yl]methanone]
57 | COc1nccc(C(=O)N2CCc3c(nn(C)c3-c3ccc(F)c(C(F)F)c3)[C@@H]2C)c1C [Example 593, [(7S)-3-[3-(Difluoromethyl)-4-fluoro-phenyl]-2,7-dimethyl-5,7-dihydro-4H-pyrazolo[3,4-c]pyridin-6-yl]-(2-methoxy-3-methyl-4-pyridyl)methanone]
14.5 | Cc1cccc2ncc(C(=O)N3CCc4c(nn(C)c4-c4cc(F)c(F)c(F)c4)[C@@H]3C)n12 [Example 401, [(7S)-2,7-Dimethyl-3-(3,4,5-trifluorophenyl)-5,7-dihydro-4H-pyrazolo[3,4-c]pyridin-6-yl]-(5-methylimidazo[1,2-a]pyridin-3-yl)methanone]
4.18 | C[C@H]1c2nn(C)c(-c3cc(F)c(F)c(F)c3)c2CCN1C(=O)c1cccc2c1OCC(=O)N2C [Example 591, [(7S)-2,7-8-[(7S)-2,7-Dimethyl-3-(3,4,5-trifluorophenyl)-5,7-dihydro-4H-pyrazolo[3,4-c]pyridine-6-carbonyl]-4-methyl-1,4-benzoxazin-3-one.TFA salt]
25.4 | C[C@H]1c2nn(C)c(-c3cc(F)c(F)c(F)c3)c2CCN1C(=O)c1cccc2oc(=O)n(C)c12 [Example 585, 4-[(7S)-2,7-Dimethyl-3-(3,4,5-trifluorophenyl)-5,7-dihydro-4H-pyrazolo[3,4-c]pyridine-6-carbonyl]-3-methyl-1,3-benzoxazol-2-one]
2.23 | C[C@H]1c2nn(C)c(-c3cc(F)c(F)c(F)c3)c2CCN1C(=O)c1ccc(F)c2[nH]ccc12 [Example 354, [(7S)-2,7-Dimethyl-3-(3,4,5-trifluorophenyl)-5,7-dihydro-4H-pyrazolo[3,4-c]pyridin-6-yl]-(7-fluoro-1H-indol-4-yl)methanone]
460 | C[C@H]1c2nn(C)c(-c3cc(F)c(F)c(F)c3)c2CCN1C(=O)c1cnc(-c2ccccn2)n1C [Example 602, [(7S)-2,7-Dimethyl-3-(3,4,5-trifluorophenyl)-5,7-dihydro-4H-pyrazolo[3,4-c]pyridin-6-yl]-[3-methyl-2-(2-pyridyl)imidazol-4-yl]methanone]
187 | C[C@H]1c2nn(C)c(-c3cc(F)c(F)c(F)c3)c2CCN1C(=O)c1nnc2ccccn12 [Example 437, [(7S)-2,7-Dimethyl-3-(3,4,5-trifluorophenyl)-5,7-dihydro-4H-pyrazolo[3,4-c]pyridin-6-yl]-([1,2,4]triazolo[4,3-a]pyridin-3-yl)methanone]
7.38 | C[C@H]1c2nn(C)c(-c3ccc(F)c(Cl)c3)c2CCN1C(=O)c1ccc2ncccc2c1 [Example 505, [(7S)-3-(3-Chloro-4-fluoro-phenyl)-2,7-dimethyl-5,7-dihydro-4H-pyrazolo[3,4-c]pyridin-6-yl]-(6-quinolyl)methanone]
62.2 | C[C@H]1c2nn(C)c(-c3cc(F)c(F)c(F)c3)c2CCN1C(=O)c1nccc2ncncc12 [Example 484, [(7S)-2,7-Dimethyl-3-(3,4,5-trifluorophenyl)-5,7-dihydro-4H-pyrazolo[3,4-c]pyridin-6-yl]-pyrido[4,3-d]pyrimidin-5-yl-methanone]

same assay, conditions: 300 nM [Glycerol-1,3-3H]-oleyl glycerol, one hour incubation

IC50 [nM] | SMILES
1460 | Cn1nc2c(c1-c1ccccc1)CCN(C(=O)c1cccc3cc[nH]c13)C2 [Example 45, (1H-Indol-7-yl)(2-methyl-3-phenyl-2,4,5,7-tetrahydro-6H-pyrazolo[3,4-c]pyridin-6-yl)methanone]
2000 | Cn1nc2c(c1-c1ccccc1)CCN(C(=O)c1ccn3cncc3c1)C2 [Example 78, Imidazo[1,5-a]pyridin-7-yl(2-methyl-3-phenyl-2,4,5,7-tetrahydro-6H-pyrazolo[3,4-c]pyridin-6-yl)methanone]
101 | COc1cccc(C(=O)N2CCc3c(nn(-c4ccccc4)c3-c3ccccc3)[C@@H]2C)c1 [Example 257, (3-Methoxyphenyl)-[(7S)-7-methyl-2,3-diphenyl-5,7-dihydro-4H-pyrazolo[3,4-c]pyridin-6-yl]methanone]
14.8 | Cc1nc(C(=O)N2CCc3c(nn(C)c3-c3cc(F)c(F)c(F)c3)[C@@H]2C)nn1-c1ccccc1 [Example 321, [(7S)-2,7-Dimethyl-3-(3,4,5-trifluorophenyl)-5,7-dihydro-4H-pyrazolo[3,4-c]pyridin-6-yl]-(5-methyl-1-phenyl-1,2,4-triazol-3-yl)methanone]
671 | Cn1nc2c(c1-c1ccccc1)CCN(C(=O)c1ccccc1-n1cncn1)C2 [Example 18, (2-(1H-1,2,4-Triazol-1-yl)phenyl)(2-methyl-3-phenyl-2,4,5,7-tetrahydro-6H-pyrazolo[3,4-c]pyridin-6-yl)methanone]
181 | COc1ccnc(C(=O)N2CCc3c(nn(C)c3-c3cc(F)c(F)c(F)c3)[C@@H]2C)c1C [Example 307, [(7S)-2,7-Dimethyl-3-(3,4,5-trifluorophenyl)-5,7-dihydro-4H-pyrazolo[3,4-c]pyridin-6-yl]-(4-methoxy-3-methyl-2-pyridyl)methanone]
0.22 | C[C@H]1c2nn(C)c(-c3cc(F)c(F)c(F)c3)c2CCN1C(=O)c1cccc2c1ccn2C [Example 207, (S)-(2,7-dimethyl-3-(3,4,5-trifluorophenyl)-2,4,5,7-tetrahydro-6H-pyrazolo[3,4-c]pyridin-6-yl)(1-methyl-1H-indol-4-yl)methanone]
17.7 | C[C@H]1c2nn(C)c(-c3cc(F)c(F)c(F)c3)c2CCN1C(=O)c1ccc2c(c1)N(C)C(=O)CO2 [Example 204, (S)-6-(2,7-Dimethyl-3-(3,4,5-trifluorophenyl)-4,5,6,7-tetrahydro-2H-pyrazolo[3,4-c]pyridine-6-carbonyl)-4-methyl-2H-benzo[b][1,4]oxazin-3(4H)-one]
2560 | Cn1nc2c(c1-c1ccccc1)CCN(C(=O)c1cccc(OC(F)F)n1)C2 [Example 24, (6-(Difluoromethoxy)pyridin-2-yl)(2-methyl-3-phenyl-2,4,5,7-tetrahydro-6H-pyrazolo[3,4-c]pyridin-6-yl)methanone]
